# Reference: patent publication US6498138B1, “Method of promoting production of living tissue equivalents” (University of Southern California, priority 1998, dated 2002)
# Entries after “also recorded” stand apart in the source; their conditions may differ. Square brackets hold non-standard residues; d marks the D form. Ends that are not written are not given here. Phe(4-NH2) = Nc1ccc(C[C@H](N)C(=O)O)cc1; Nle = CCCC[C@H](N)C(=O)O; Ac5c = NC1(C(=O)O)CCCC1
# Legend:
# [1] = system: living skin equivalent (LSE) epidermis; assay: Epidermal thickness of living skin equivalent (LSE) presoaked in AII and grafted on nude mice; format: in vivo, Swiss nude mice
# From the text: Twenty three male Swiss nude mice (22-24 grams) were purchased from Taconic Laboratories and quarantined at least two days prior to surgery, and divided into 4 groups of mice. The mice were anesthetized with an intramuscular injection of Ketamine (ketaset; Phoenix Pharmaceuticals, Inc.) and Rompun (xylazine; Phoenix Pharmaceuticals, Inc.) and a 1 cm×1 cm full thickness skin excision was made on their dorsal surface. Each group received an Apligraph LSE (Organogenesis; Canton, Mass.) that had been soaked for 10 minutes in concentrations of AII ranging from 0 to 1.0 mg/ml. The LSE was placed in the defect and trimmed with microscissors so that no gap was observed between the edges of the mouse skin and the LSE. After the graft was placed, the dorsal surface of the mouse was covered by petroleum embedded gauze (Dermacea) followed by two adhesive bandages (Baxter). After recovery from anesthesia, the mice were returned to their individual cages and observed daily until euthenasia. The mice received intramuscular analgesia for the first three days after surgery. No mouse lost their bandage prior to bandage removal on day 7 and day 23. […]
# […] The thickest part of each graft was measured and the thickness of the graft at one-half of a 10×field to each side of the thickest portion was also measured.
# [2] = system: keratinocytes from explants of human skin; assay: Outgrowth of keratinocytes from explants of human skin on Dermagraft; format: cell-based; settings: AII 1 or 10 μg/ml, 7 days
# From the text: Human skin explants were obtained from surgery of split thickness skin grafts and cut by scalpel in to 2 mm×2 mm squares. Ten explants per condition were placed dermal side down on frozen and thawed Dermagraft (Advanced Tissue Sciences, San Diego, Calif.) and cultured at the air-liquid interface using Keratinocyte-SFM medium (Gibco BRL, Grand Island, N.Y.) supplemented with epidermal growth factor and bovine pituitary extract according to the manufacturer's instructions. The culture medium contained penicillin (50 U/ml) and streptomycin (50 μg/ml) and extra calcium chloride to a final concentration of 1 mM. Angiotensin II was added to the culture medium at a final concentration of 1 or 10 μg/ml. The cultures were maintained at 37° C. with 5% CO2 and medium with and without AII and the medium was changed twice weekly. After 7 days, the cultures were fixed in formalin for one hour, stained with hematoxylin and washed in tap water. The dermal replacements appeared dark purple except for the area where the keratinocytes exclude the stain. Cultures were photographed using a dissection microscope at a fixed magnification and the area of outgrowth was quantified by gravimetric planimetry.
# Normal human fibroblasts = assay: Contraction of collagen lattices by human fibroblasts; format: cell-based; settings: for Diameter of Lattice, Day 1 / Diameter of Lattice, Day 2 / Diameter of Lattice, Day 3 / Diameter of Lattice, Day 4: 10 μg/ml peptide, 1×10^5 fibroblasts/well; for Diameter of Lattice, Day 1: Day 1 of culture; for Diameter of Lattice, Day 2: Day 2 of culture; for Diameter of Lattice, Day 3: Day 3 of culture; for Diameter of Lattice, Day 4: Day 4 of culture
# Procedure: Normal human fibroblasts were purchased from Clonetics (San Diego, Calif.) and were thawed and cultured in Fibroblast Growth Medium (Clonetics) according to the manufacturer's instructions. Once the cells reached confluence in the flask, they were harvested by trypsinization and utilized for the studies described below.
# Rat tails were harvested from 200 gram female rats and frozen until use. The frozen rat tails were thawed in 70% (vol/vol) ethanol for 20 minutes. The tendon bundles were excised in 70% ethanol in a vertical laminar flow hood. The individual tendons were pulled out of the tendon sheath, minced, and placed in dilute acetic acid (1:1000) using 250 ml per tail. The mixture was incubated at 4° C. for 48 hours, at which point the minced tendons had swelled to the volume of the dilute acetic acid. The viscous mixture was centrifuged at 23,000 rpm in a Beckman L ultracentrifuge for 1 hour. The supernatant was harvested and further refined. This crude collagen solution was mixed with 0.1M NaOH in a 6:1 ratio to neutralize the acetic acid and precipitate the collagen. The mixture was then centrifuged at 1500 rpm for 5 minutes. The supernatant was discarded and an equal volume of fresh acetic acid (1:1000) was introduced to resolubilize the collagen over 48 hours. This solution was stored at 4° C. as refined collagen. The protein concentration was determined by BCA assay.
# The collagen lattices for the assessment of contraction by fibroblasts and angiotensin II were formed in 60 mm Falcon bacteriological dishes. Each dish contained 1 ml 4×DMEM High glucose medium, 1 ml fetal calf serum, 0.25 ml NaOH, 1.5 ml of 500 μg/ml refined collagen and 1 ml of fibroblasts in Fibroblast Growth Medium (7.5×10^4 cells/ml to 7.5×10^5 cells/ml). In these cultures, various concentrations of AII (1 to 10 μg/ml) were added to assess the effect of AII on the formation of an artificial dermis. The cultures were placed in an incubator at 37° C. in an atmosphere of 5% CO2 in air. At various times after culture initiation, the diameter of the formed lattice was measured. As there are slight differences in diameter at various points (ie: the lattices were not always perfectly round), the average of the largest and the smallest diameters were taken.
# Similar experiments were conducted using AII analogues and fragments, except that ten μg/ml of each of the peptides shown in Table 3 were added to 1×10^5 of fibroblasts/well. At various times after culture initiation, the diameter of the formed lattice was measured.
# Human keratinocytes = assay: Keratinocyte proliferation on Integra artificial dermis; format: cell-based; settings: 10 μg/ml peptide, 1×10^5 cells/ml
# From the text: Integra, a commercially available artificial dermis of chondrotin sulfate and collagen, was obtained (Integra Life Sciences) and used in culture as a matrix for keratinocyte growth. The Integras was washed free of preservative by a sterile saline for injection and cut to size to fit snugly into the bottom of 24 well plates. After trimming, the pieces of Integra were placed silicone-side down into the wells.
# Human keratinocytes were purchased from Clonetics and thawed and cultured as described in Example 3, except that they were grown in Keratinocyte Growth Medium, as per the manufacturer's instructions. Once the cells reached confluence in the flask, they were detached from the tissue culture flasks by trypsinization. The cells were resuspended at 1×10^5 cells/ml in Keratinocyte Growth Medium or Keratinocyte Basal Medium with or without 10 μg/ml of various AII-related peptides (AII, AII(1-7), Pro3 AII(1-7), Ala4-AIII, and Pro3-AII; see Table 5 below). One ml of these cell preparations was added to wells of the 24 well plates containing Integra membrane. The cultures were placed in an incubator at 37° C. in an atmosphere of 5% CO2 in air. At various times after initiation of the cultures, the number of keratinocytes on the surface of the Integra membrane in 5 100×fields was assessed under phase contrast microscopy.
# AT2 receptor = settings: cited from earlier work
# [3] = Unspecified test of effectiveness of AII fragments; settings: test not specified
substance,measurement,setting,value
"Asp-Arg-Val-Tyr-Ile-His-Pro-Phe (DRVYIHPF) [AII, known pressor agent, commercially available, reference compound]",vessels attached to underside of graft,"[1]; day 7, one of the AII-treated grafts",numerous vessels attached to its underside
same,epidermal thickness,"[1]; day 23 post-grafting, LSE soaked 10 minutes in AII 0 to 1.0 mg/ml",increased in a concentration-dependent manner
same,area of the artificial dermis covered with keratinocytes (outgrowth),[2],increased the area of the artificial dermis covered with keratinocytes
same,"Diameter of Lattice, Day 1",Normal human fibroblasts,3.3 cm
same,"Diameter of Lattice, Day 2",Normal human fibroblasts,2.4 cm
same,"Diameter of Lattice, Day 3",Normal human fibroblasts,1.6 cm
same,"Diameter of Lattice, Day 4",Normal human fibroblasts,1.4 cm
same,contraction of collagen lattices,"Normal human fibroblasts; AII 1 to 10 μg/ml, fibroblasts 7.5×10^4 to 7.5×10^5 cells/ml",accelerated the contraction of collagen lattices
same,proliferation of keratinocytes (number on the surface of the Integra membrane),Human keratinocytes,increased the proliferation of keratinocytes
same,affinity for AT2 than AT1,AT2 receptor; AT2 versus AT1,100 times
His-Pro-Phe (HPF) [AII(6-8)],effectiveness,[3],not to be effective
Asp-Arg-Val-Tyr-Ile-His-Pro (DRVYIHP) [AII(1-7)],"Diameter of Lattice, Day 1",Normal human fibroblasts,3.4 cm
same,"Diameter of Lattice, Day 2",Normal human fibroblasts,2.4 cm
same,"Diameter of Lattice, Day 3",Normal human fibroblasts,2.0 cm
same,"Diameter of Lattice, Day 4",Normal human fibroblasts,1.7 cm
same,proliferation of keratinocytes (number on the surface of the Integra membrane),Human keratinocytes,increased the proliferation of keratinocytes
Asp-Arg-Val-Tyr-Ile-Xaa-Pro-Phe (DRVYI[Phe(4-NH2)]PF) [(p-NH2-Phe)6-AII],binding characteristics,"AT2 receptor; experimental models tested, compared with AT2 antagonists",comparable to AT2 antagonists
DRVYIHPI [Ile8 AII],"Diameter of Lattice, Day 1",Normal human fibroblasts,3.4 cm
same,"Diameter of Lattice, Day 2",Normal human fibroblasts,2.4 cm
same,"Diameter of Lattice, Day 3",Normal human fibroblasts,1.7 cm
same,"Diameter of Lattice, Day 4",Normal human fibroblasts,1.4 cm
RVYAHPF [Ala4-AIII],"Diameter of Lattice, Day 1",Normal human fibroblasts,3.4 cm
same,"Diameter of Lattice, Day 2",Normal human fibroblasts,2.7 cm
same,"Diameter of Lattice, Day 3",Normal human fibroblasts,1.9 cm
same,"Diameter of Lattice, Day 4",Normal human fibroblasts,1.6 cm
same,proliferation of keratinocytes (number on the surface of the Integra membrane),Human keratinocytes,increased the proliferation of keratinocytes
DRPYIHPF [Pro3-AII],proliferation of keratinocytes (number on the surface of the Integra membrane),Human keratinocytes,increased the proliferation of keratinocytes
DRPYIHP [Pro3 AII(1-7)],proliferation of keratinocytes (number on the surface of the Integra membrane),Human keratinocytes,increased the proliferation of keratinocytes
GRVYIHPF [Gly1 AII],"Diameter of Lattice, Day 1",Normal human fibroblasts,3.4 cm
same,"Diameter of Lattice, Day 2",Normal human fibroblasts,2.2 cm
same,"Diameter of Lattice, Day 3",Normal human fibroblasts,1.6 cm
same,"Diameter of Lattice, Day 4",Normal human fibroblasts,1.5 cm
Tyr-Ile-His-Pro-Phe (YIHPF) [AII(4-8)],effectiveness,[3],not to be effective; also recorded: ineffective in repeated tests
DR(Acpc)YIHPF (DR[Ac5c]YIHPF) [Acpc3 AII],"Diameter of Lattice, Day 1",Normal human fibroblasts,3.5 cm
same,"Diameter of Lattice, Day 2",Normal human fibroblasts,2.0 cm
same,"Diameter of Lattice, Day 3",Normal human fibroblasts,1.6 cm
same,"Diameter of Lattice, Day 4",Normal human fibroblasts,1.4 cm
--RVYnLHPF (RVY[Nle]HPF) [NorLeu4 AIII],"Diameter of Lattice, Day 1",Normal human fibroblasts,3.4 cm
same,"Diameter of Lattice, Day 2",Normal human fibroblasts,2.0 cm
same,"Diameter of Lattice, Day 3",Normal human fibroblasts,1.6 cm
same,"Diameter of Lattice, Day 4",Normal human fibroblasts,1.5 cm
